Assay results reported in US20200131196A1 (Mount Tam Therapeutics, Inc., priority 2017, published 2020).
Where two headings read alike, the source gives them in different places.

How the values were obtained:
Assay type in all cases: cell-based, human
MES-SA = assay: OncoPanel cell proliferation assay, MES-SA
Description: (§1) Cells were grown in RPMI 1640, 10% FBS, 2 mM L-alanyl-L-glutamine, 1 mM Na pyruvate, or a special medium. Cells were seeded into 384-well plates and incubated in a humidified atmosphere of 5% CO2 at 37° C. Compounds were added the day following cell seeding. At the same time, a time zero untreated cell plate was generated. After a 3-day incubation period, cells were fixed and stained to allow fluorescence imaging of nuclei. Compounds (1 mM stock solutions) were serially diluted in half-log steps from the highest test concentration ([…]), and assayed over 10 concentrations with a maximum assay concentration of 0.1% DMSO. Automated fluorescence microscopy was carried out using a Molecular Devices ImageXpress Micro XL high-content imager, and images were collected with a 4× objective. 16-bit TIFF images were acquired and analyzed with MetaXpress 5.1.0.41 software.
(§2) Cell proliferation was measured by the fluorescence intensity of an incorporated nuclear dye. The output is referred to as the relative cell count, where the measured nuclear intensity is transformed to percent of control (POC) using the following formula: […]
(§3) Cellular response parameters were calculated using nonlinear regression to a sigmoidal single-site dose response model:
(§4) EC50 is the test compound concentration at the curve inflection point or half the effective response (parameter C of the fitted curve solution). GI50 is the concentration needed to reduce the observed growth by half (midway between the curve maximum and the time zero value). “Cell Count Activity Area” is an estimate of the integrated area above the curve (Barretina, et al. The Cancer Cell Line Encyclopedia enables predictive modelling of anticancer drug sensitivity. Nature 483: 603-607). […] In rare instances, values <0 or >10 may be observed. […] Curve-fitting, calculations, and report generation was performed using a custom data reduction engine and MathIQ based software (AIM).

SK-MEL-28 = assay: OncoPanel cell proliferation assay, SK-MEL-28
Description: as §1, §2, §3, §4

ST486 = assay: OncoPanel cell proliferation assay, ST486
Description: as §1, §2, §3, §4

CEM-C1 = assay: OncoPanel cell proliferation assay, CEM-C1
Description: as §1, §2, §3, §4

RL95-2 = assay: OncoPanel cell proliferation assay, RL95-2
Description: as §1, §2, §3, §4

SW684 = assay: OncoPanel cell proliferation assay, SW684
Description: as §1, with “Cells” for “Cells were grown in RPMI 1640, 10% FBS, 2 mM L-alanyl-L-glutamine, 1 mM Na pyruvate, or a special medium. Cells”
as §2, §3
GI50 is the concentration needed to reduce the observed growth by half (midway between the curve maximum and the time zero value). […] In rare instances, values <0 or >10 may be observed. […] Curve-fitting, calculations, and report generation was performed using a custom data reduction engine and MathIQ based software (AIM).

[1] = Homo sapiens, read-out: Cell Count EC50
[2] = Homo sapiens, read-out: Cell Count GI50
[3] = Homo sapiens, read-out: Cell Count IC50

Structure (SMILES): CO[C@H]1C[C@@H]2CC[C@@H](C)[C@@](O)(O2)C(=O)C(=O)N2CCCC[C@H]2C(=O)O[C@H]([C@H](C)C[C@H]2C[C@H]3C[C@@H]2C[C@@H]3O)CC(=O)[C@H](C)/C=C(\C)[C@@H](O)[C@@H](OC)C(=O)[C@H](C)C[C@H](C)/C=C/C=C/C=C/1C [Formula II, C37-[(1R,2S,4R,5S)-5-hyhroxybicyclo[2.2.1]heptane] rapamycin]
- Cell Count Activity Area (MES-SA): 4.81
- Relative cell count (%) Mean (MES-SA; 1.00E+00 microM): 26.6%
- Relative cell count (%) Mean (MES-SA; 1.00E-01 microM): 31.4%
- Relative cell count (%) Mean (MES-SA; 1.00E-02 microM): 43.5%
- Relative cell count (%) Mean (MES-SA; 1.00E-03 microM): 71.1%
- Relative cell count (%) Mean (MES-SA; 1.01E-04 microM): 107.7%
- Relative cell count (%) Mean (MES-SA; 3.16E-01 microM): 26.5%
- Relative cell count (%) Mean (MES-SA; 3.17E-02 microM): 35.6%
- Relative cell count (%) Mean (MES-SA; 3.17E-03 microM): 53.2%
- Relative cell count (%) Mean (MES-SA; 3.18E-04 microM): 90.9%
- Relative cell count (%) Mean (MES-SA; 3.18E-05 microM): 105.0%
- EC50 (MES-SA; [1]): 1.17 nM
- GI50 (MES-SA; [2]): 1.96 nM
- IC50 (MES-SA; [3]): 2.74 nM
- Cell Count Activity Area (SK-MEL-28): 2.68
- Relative cell count (%) Mean (SK-MEL-28; 1.00E+00 microM): 60.6%
- Relative cell count (%) Mean (SK-MEL-28; 1.00E-01 microM): 69.8%
- Relative cell count (%) Mean (SK-MEL-28; 1.00E-02 microM): 84.3%
- Relative cell count (%) Mean (SK-MEL-28; 1.00E-03 microM): 91.6%
- Relative cell count (%) Mean (SK-MEL-28; 1.01E-04 microM): 110.7%
- Relative cell count (%) Mean (SK-MEL-28; 3.16E-01 microM): 66.4%
- Relative cell count (%) Mean (SK-MEL-28; 3.17E-02 microM): 71.0%
- Relative cell count (%) Mean (SK-MEL-28; 3.17E-03 microM): 85.4%
- Relative cell count (%) Mean (SK-MEL-28; 3.18E-04 microM): 94.6%
- Relative cell count (%) Mean (SK-MEL-28; 3.18E-05 microM): 102.8%
- EC50 (SK-MEL-28; Homo sapiens, Skin, Melanoma, summary Table 5, read-out: EC50): 4.8 nM
- EC50 (SK-MEL-28; [1]): 4.71 nM
- GI50 (SK-MEL-28; [2]): 38.2 nM
- IC50 (SK-MEL-28; [3]): > 1000 nM
- Cell Count Activity Area (ST486): 3.05
- Relative cell count (%) Mean (ST486; 1.00E+00 microM): 55.2%
- Relative cell count (%) Mean (ST486; 1.00E-01 microM): 56.2%
- Relative cell count (%) Mean (ST486; 1.00E-02 microM): 57.6%
- Relative cell count (%) Mean (ST486; 1.00E-03 microM): 72.7%
- Relative cell count (%) Mean (ST486; 1.01E-04 microM): 90.5%
- Relative cell count (%) Mean (ST486; 3.16E-01 microM): 49.9%
- Relative cell count (%) Mean (ST486; 3.17E-02 microM): 55.2%
- Relative cell count (%) Mean (ST486; 3.17E-03 microM): 58.2%
- Relative cell count (%) Mean (ST486; 3.18E-04 microM): 77.5%
- Relative cell count (%) Mean (ST486; 3.18E-05 microM): 92.2%
- EC50 (ST486; [1]): 0.581 nM
- GI50 (ST486; [2]): 1.17 nM
- IC50 (ST486; [3]): > 1000 nM
- Cell Count Activity Area (CEM-C1): 3.13
- Relative cell count (%) Mean (CEM-C1; 1.00E+00 microM): 51.5%
- Relative cell count (%) Mean (CEM-C1; 1.00E-01 microM): 56.2%
- Relative cell count (%) Mean (CEM-C1; 1.00E-02 microM): 66.8%
- Relative cell count (%) Mean (CEM-C1; 1.00E-03 microM): 82.0%
- Relative cell count (%) Mean (CEM-C1; 1.01E-04 microM): 98.1%
- Relative cell count (%) Mean (CEM-C1; 3.16E-01 microM): 52.4%
- Relative cell count (%) Mean (CEM-C1; 3.17E-02 microM): 58.8%
- Relative cell count (%) Mean (CEM-C1; 3.17E-03 microM): 73.0%
- Relative cell count (%) Mean (CEM-C1; 3.18E-04 microM): 92.1%
- Relative cell count (%) Mean (CEM-C1; 3.18E-05 microM): 100.6%
- EC50 (CEM-C1; [1]): 1.8 nM
- GI50 (CEM-C1; [2]): 32.5 nM
- IC50 (CEM-C1; [3]): 265 nM
- Cell Count Activity Area (RL95-2): 3.36
- Relative cell count (%) Mean (RL95-2; 1.00E+00 microM): 48.1%
- Relative cell count (%) Mean (RL95-2; 1.00E-01 microM): 51.9%
- Relative cell count (%) Mean (RL95-2; 1.00E-02 microM): 61.8%
- Relative cell count (%) Mean (RL95-2; 1.00E-03 microM): 69.2%
- Relative cell count (%) Mean (RL95-2; 1.01E-04 microM): 91.3%
- Relative cell count (%) Mean (RL95-2; 3.16E-01 microM): 51.5%
- Relative cell count (%) Mean (RL95-2; 3.17E-02 microM): 53.8%
- Relative cell count (%) Mean (RL95-2; 3.17E-03 microM): 62.6%
- Relative cell count (%) Mean (RL95-2; 3.18E-04 microM): 78.8%
- Relative cell count (%) Mean (RL95-2; 3.18E-05 microM): 95.1%
- EC50 (RL95-2; [1]): 0.645 nM
- GI50 (RL95-2; [2]): 1.18 nM
- IC50 (RL95-2; [3]): > 1000 nM
- Cell Count Activity Area (SW684): 2.97
- Relative cell count (%) Mean (SW684; 1.00E+00 microM): 49.0%
- Relative cell count (%) Mean (SW684; 1.00E-01 microM): 55.6%
- Relative cell count (%) Mean (SW684; 1.00E-02 microM): 71.4%
- Relative cell count (%) Mean (SW684; 1.00E-03 microM): 85.1%
- Relative cell count (%) Mean (SW684; 1.01E-04 microM): 94.1%
- Relative cell count (%) Mean (SW684; 3.16E-01 microM): 52.4%
- Relative cell count (%) Mean (SW684; 3.17E-02 microM): 63.3%
- Relative cell count (%) Mean (SW684; 3.17E-03 microM): 71.8%
- Relative cell count (%) Mean (SW684; 3.18E-04 microM): 86.4%
- Relative cell count (%) Mean (SW684; 3.18E-05 microM): 99.5%
- EC50 (SW684; [1]): 4.57 nM
- GI50 (SW684; [2]): 2.19 nM
- IC50 (SW684; [3]): 370 nM
